Reference: patent US5506102A (priority 1993, dated 1996)

Target: T1, human androgen receptor (Homo sapiens, UniProt P10275)
T1 sequence (P10275 1-920): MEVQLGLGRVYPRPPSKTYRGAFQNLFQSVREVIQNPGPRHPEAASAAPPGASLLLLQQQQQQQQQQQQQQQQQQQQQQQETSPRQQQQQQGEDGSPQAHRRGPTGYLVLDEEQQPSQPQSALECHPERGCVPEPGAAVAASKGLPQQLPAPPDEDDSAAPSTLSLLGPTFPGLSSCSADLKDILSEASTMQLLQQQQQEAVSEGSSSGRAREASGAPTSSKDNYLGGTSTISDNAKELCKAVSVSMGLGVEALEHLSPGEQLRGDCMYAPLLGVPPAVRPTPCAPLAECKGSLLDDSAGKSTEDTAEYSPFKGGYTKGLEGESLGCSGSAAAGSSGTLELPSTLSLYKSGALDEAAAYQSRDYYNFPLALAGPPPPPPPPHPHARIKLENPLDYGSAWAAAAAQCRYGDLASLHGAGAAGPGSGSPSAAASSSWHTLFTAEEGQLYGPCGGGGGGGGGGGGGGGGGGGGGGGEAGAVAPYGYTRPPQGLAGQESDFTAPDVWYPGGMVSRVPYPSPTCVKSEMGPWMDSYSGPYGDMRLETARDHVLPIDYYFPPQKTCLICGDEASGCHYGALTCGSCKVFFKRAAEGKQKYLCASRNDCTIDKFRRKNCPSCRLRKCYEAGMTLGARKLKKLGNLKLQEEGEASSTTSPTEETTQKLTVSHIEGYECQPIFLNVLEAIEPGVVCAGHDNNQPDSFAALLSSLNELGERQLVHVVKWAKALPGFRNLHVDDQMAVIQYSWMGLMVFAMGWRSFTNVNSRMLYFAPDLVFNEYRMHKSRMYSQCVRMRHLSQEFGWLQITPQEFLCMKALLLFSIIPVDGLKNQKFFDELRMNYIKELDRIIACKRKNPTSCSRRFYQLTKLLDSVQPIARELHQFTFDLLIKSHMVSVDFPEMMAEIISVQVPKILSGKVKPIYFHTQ
Assay: AR transcriptional activity on MMTV-LUC, CV-1 cells, AR alone
Format: cell-based
Conditions: FIG. 10
Procedure: FIGS. 10A-10B are a series of graphs showing CV-1 cells that were transiently transfected with an expression vector for the human androgen receptor (pRShAR) alone, or in combination with phPR-A together with 5 µg/ml of the MMTV-LUC reporter and 5 µg/ml of pCH110 as an internal control. […] The relative luciferase activity is calculated by dividing the normalized luciferase value at a given point by that obtained in the absence of transfected receptor or ligand. […] The data are presented as percent (%) activation, where 100% represents the maximal induction achieved by human androgen receptor at 10^ -8 M DHT. The experimental data represents mean values +/- the average deviation from the mean of quadruplicate estimations;
Cells were seeded in 12-well, 96-well or 10 cm tissue culture plates. […] 20 μg of DNA/ml of transfection buffer were used in each transfection reaction. In this mix, the concentration of the luciferase plasmids and that of the internal control plasmid pCH110 (Pharmacia, Inc.), which contains the gene for the β-galactosidase enzyme, remained constant ([…] of each plasmid DNA), while the receptor plasmid concentration varied as indicated for each experiment. […]

Compound: CC#C[C@]1(O)CC[C@H]2[C@@H]3CCC4=CC(=O)CCC4=C3[C@@H](c3ccc(C(C)=O)cc3)C[C@@]21C [ZK112993]
- effect on DHT-induced AR activity: efficient inhibitor of DHT-activated AR
